US11246854B2, “Ozonides for treating or preventing virus infections” (THE JOHNS HOPKINS UNIVERSITY, priority 2017, dated 2022)
“Also recorded” adds a separate entry of the source.

How the values were obtained:
[1] = system: pp28-luciferase Towne CMV strain; experiment: Drug combination with GCV (Bliss model); format: cell-based, human cytomegalovirus; conditions: FIGS. 4D and E
Procedure: Drug combinations were performed as previously reported (33). Briefly, 2×10^6 HFFs were seeded in a 96-well plate and infected with the pp28-luciferase Towne CMV strain at MOI=1. First, a dose response curve was generated for each drug individually to determine its EC50. […] Luciferase activity of the combination and each drug individually was quantified at 72 hpi. The Bliss model was used to calculate the effect of each drug combination on pp28-luciferase activity. In this model, drug combination represents the product of two probabilistically independent events as described in the following equation (23):
[formula] Where D is the drug concentration, m is the slope, and EC50 is the effective concentration resulting in 50% virus inhibition. The combined effect of two inhibitors (FU, fractional unaffected) is computed as the product of individual effects of the two inhibitors, FU1 and FU2. If the ratio of observed fold inhibition divided by the expected fold inhibition is greater than 1, the compounds are synergistic. If the ratio is less than 1, the combination is considered antagonistic, and if it equals to 1 the combination is additive.

non-infected HFFs [2] = conditions: literature report; cited from earlier work
pp28-luciferase HCMV = experiment: Add-on and removal experiments; format: cell-based, human cytomegalovirus; conditions: luciferase at 72 hpi
Procedure: HFFs were infected with the pp28-luciferase HCMV as described above. At 0, 6, 12, 24, 36 and 48 hpi, the media were replaced by the media containing OZ418 or GCV. For time-of-removal studies, media containing the compounds were removed at 0, 6, 12, 24, 36 and 48 hpi, cells were then washed three times with PBS, and drug-free medium was added. The cells were incubated at 37° C., and luciferase assays were carried out at 72 hpi.

[3] = system: HCMV in high density and low density HFFs; conditions: Roy S., 2015; cited from earlier work
[4] = system: CDK 1, 2, 4, pRb and E2F1 expression; experiment: Immunoblot of CDKs, pRb and E2F1, HCMV-infected HFFs; format: cell-based, human
Procedure: (§1) Cell lysates were quantified for total protein content using Pierce bicinchoninic acid (BCA) protein assay kit (Thermo-Fisher Scientific, Waltham, Mass.). Equivalent amounts of protein were mixed with an equal volume of sample buffer (125 mM Tris-HCl [pH 6.8], 4% SDS 20% glycerol, 5% β-mercaptoethanol) and boiled at 100° C. for 10 min. Denatured proteins were resolved in Tris-glycine polyacrylamide gels (10% to 12%) and transferred to polyvinylidene difluoride membranes (Bio-Rad Laboratories, Hercules, Calif.) by electroblotting. Membranes were incubated in blocking solution (5% nonfat dry milk/BSA and 0.1% Tween 20 in PBS [PBST]) for 1 h, washed three times with PBST, and incubated primary antibodies diluted in 5% milk or BSA (for pRb) at 4° C. overnight. The membranes were washed with PBST, followed by incubation with horseradish peroxidase (HRP)-conjugated secondary antibodies in 5% milk/BSA for 1 h at room temperature. After three washing steps with PBST, protein bands were visualized by chemiluminescence using SuperSignal West Pico reagent (Pierce Chemical, Rockford, Ill.). […]

[5] = system: pp28 luciferase-recombinant Towne HCMV; conditions: in the presence of viral DNA polymerase inhibitors; previously described; cited from earlier work
[6] = system: pp28 luciferase-recombinant Towne HCMV; experiment: pp28-luciferase Towne HCMV replication assay in HFFs; format: cell-based, human cytomegalovirus; conditions: for Selectivity index (SI): CC50/EC50; for EC50: Human betaherpesvirus 5
Procedure: (§2) Six ozonizes have been tested for inhibition of HCMV replication and toxicity in human foreskin fibroblasts (Table 1, FIG. 1). The pp28 luciferase-recombinant Towne was used to measure HCMV replication, and an MTT assay—for cell viability. […] (FIG. 1).
(§3) The pp28-luciferase Towne CMV strain was constructed as previously described (31). The recombinant virus expresses luciferase under the control of UL99 (pp28) late promoter 48-72 h post infection (hpi). […] Luciferase activity highly correlates with plaque reduction assay. The Towne CMV (ATCC VR-977) and TB40 strains (ATCC VR-1578) were used for plaque reduction, DNA replication, and cell cycle assays.
HFFs passage 12-16 (ATCC, CRL-2088) were grown in Dulbecco's Modified Eagle Medium (DMEM) containing 10% fetal bovine serum (FBS) (Gibco, Carlsbad, Calif.) in a 5% CO2 incubator at 37° C. and used for infection with pp28-luciferase Towne CMV. HCT116 (Human Colorectal Carcinoma) (ATCC, CCL-247) cells were maintained in DMEM containing 10% fetal bovine serum.
(§4) To determine the effect of cell density/cycling on the anti-HCMV activity of ozonides, HFFs were plated at 0.5×10^6, 1×10^6, 2×10^6 or 3×10^6 cells/96 well-plate 24 h prior to infection. Infection was carried out at multiplicity of infection of 1 PFU/cell (MOI=1). Following 90 minute adsorption, media containing virus was removed and replaced by DMEM with 4% FBS (Gibco) containing anti-viral compounds. Infected treated HFFs were collected at 72 hpi and pp28 activity was quantified by a Luciferase Assay Kit (Promega, Madison, Wis.) on GloMaxH-Multi+ Detection System (Promega) according to manufacturer's instructions.

MTT cell viability assay = format: cell-based; conditions: human foreskin fibroblasts
Procedure: Six ozonizes have been tested for inhibition of HCMV replication and toxicity in human foreskin fibroblasts (Table 1, FIG. 1). The pp28 luciferase-recombinant Towne was used to measure HCMV replication, and an MTT assay—for cell viability.
Cells were seeded in 96-well plates, treated with various concentrations of ozonides and incubated at 37° C. for 3 days. Cell viability was determined by an MTT-based colorimetric assay (Sigma-Aldrich), and performed at the same time points as the antiviral assay.

MCMV = experiment: Inhibition of mouse CMV replication in BALB/c mice; format: in vivo
Procedure: For infection experiments BALB/c mice, 4-6 week old, were purchased from Harlan Laboratories (Indianapolis, Ind.). The Animal Care and Use Committee of Johns Hopkins University approved the experimental procedures. After 2-3 days of adaptation to the housing environment, mice were randomly divided into several groups as follows: control, infected, infected+OZ418 1 mg/kg, 3 mg/kg or 10 mg/kg orally once daily, infected+AS 10 mg/kg orally twice daily, infected+GCV 10 mg/kg intraperitoneally twice daily. Mice were infected intraperitoneally with 10^6 PFU/mice (0.1 mL in […] saline) and all treatments were started at 24 hpi. Control mice received 0.1 ml of saline intraperitoneally. Control and infected mice received equivalent volumes of saline. Mice were sacrificed at day 14 after infection. Salivary glands, liver and spleen were harvested and stored at −80° C. Organs were homogenized in DMEM with 4% FBS at a final concentration of 100 mg/mL. Two million MEFs were seeded into 24-well plates. From each sample, 5% of the salivary gland homogenate or 10% of the liver homogenate was used for infection of MEFs in triplicates. Plaques were counted after three days.

[7] = system: HCMV in high density and low density HFFs; experiment: Effect of cell density on anti-HCMV activity (pp28 luciferase); format: cell-based, human cytomegalovirus
Procedure: as §4

HCMV entry = HCMV entry assay; format: cell-based; conditions: FIG. 4A
Procedure: To determine the time during HCMV replication that OZ418 was active an entry assay was performed (FIG. 4A).

GCV-resistant CMV strain = experiment: Inhibition of GCV-resistant HCMV; format: cell-based, human cytomegalovirus; conditions: FIG. 3
Description: FIG. 3A-3D illustrates activity of OZ418 against a GCV-resistant CMV strain. A. Dose response. B. Luciferase. C. HCMV proteins IE1/2, UL44, and pp65 detection. D. Plaque reduction assay.
A GCV-resistant strain was inhibited by OZ418 (FIG. 3).

non-infected HFFs [8] = experiment: Cell cycle progression by flow cytometry, non-infected HFFs; format: cell-based, human; conditions: non-infected cells, 30 μM, 24 h and 72 h
Procedure: (§5) To identify the cell cycle stage affected by OZ418, non-infected HFFs were serum starved for 72 h and then released in DMEM with 0% FBS (control for G0 arrest), 10% FBS (control for cell cycle progression), or 10% FBS plus OZ418 (30 μM), AS (30 μM), or GCV (30 μM) for 24 h and 72 h, respectively. To determine the effects of OZ418 on cell cycle progression in infected HFFs, 1.0×10^6 cells were serum starved for 72 h, and then infected with HCMV Towne strain (MOI=1) followed by treatment with OZ418 (30 μM), AS (30 μM), or GCV (5 μM) for 24 h and 72 h, respectively. The cells were collected by treatment with trypsin and then washed with PBS. The collected cells were fixed in 5 ml of cold 70% ethanol overnight at 4° C. and resuspended in […] of staining buffer (50 μg/ml propidium iodide [Sigma-Aldrich] and 0.2 mg/ml RNase A in PBS) for 45 min at 37° C. in 5% CO2. The samples were analyzed on an LSR II flow cytometer (BD Biosciences, San Jose, Calif.), and at least 10,000 cells were counted for each sample. Data analysis was performed using FlowJo software (Tree Star, USA). The percentage of cells in G1/S/G2-M is shown in each condition.

HCMV TB40 strain = experiment: Plaque reduction assay in HFFs; format: cell-based, human cytomegalovirus; conditions: Human betaherpesvirus 5, read-out: EC50 in plaque reduction assay
Procedure: as §2, §3
A plaque reduction assay was performed in HFFs. One day prior to infection, HFFs were seeded at 3×10^6 cells/24-well plate. The Towne CMV strain was diluted in DMEM to a desired titer which gave approximately 50 plaques/well and added to each well in quadruplicates. Plates were incubated for 90 minutes with shaking every 10 min; thereafter compounds were added and replenished every 3 days. After a 10-day incubation, cells were stained with crystal violet and plaques were counted at 40× magnification.

HCMV-infected HFFs = experiment: Cell cycle progression by flow cytometry, HCMV-infected HFFs; format: cell-based, human; conditions: HCMV-infected cells, 30 μM, 24 h and 72 h
Procedure: as §5

[9] = system: CDKs, pRB and E2F1 expression; experiment: Immunoblot of CDKs, pRb and E2F1, non-infected HFFs; format: cell-based, human
Procedure: as §1

## C[C@H]1[C@H](OC(=O)CCC(=O)O)O[C@@H]2O[C@@]3(C)CC[C@H]4[C@H](C)CC[C@@H]1[C@@]24OO3 [AS, Artesunate, reference compound]
[1]
  Combination effect with GCV against HCMV: synergistic activity with GCV
non-infected HFFs [2]
  Cell cycle effect (reported): arrest cell cycle in early G1
pp28-luciferase HCMV
  Timing of anti-HCMV activity: lost anti-HCMV activity when added after 24 h post infection
[3]
  Cell-density dependence of anti-HCMV activity (reported): cell-density dependent

## Nc1nc(O)c2ncn(COC(CO)CO)c2n1 [GCV, ganciclovir, reference compound]
[4]
  Expression level of CDKs, pRb and E2F1: did not exhibit any effects on pRb/CDKs expression
[5]
  Luciferase expression from UL99 (pp28) late promoter: almost completely inhibited

## CC(C)(N)CNC(=O)C[C@H]1CC[C@]2(CC1)OO[C@]1(O2)C2CC3CC(C2)CC1C3 [OZ277, arterolane, reference compound]
[6]
  Selectivity index (SI): 1.98 ± 0.09
  EC50: 17.1 ± 1.31 µM
MTT cell viability assay
  CC50 at 3 days: 33.7 ± 1 µM

## O=C(O)COc1ccc([C@H]2CC[C@]3(CC2)OO[C@]2(O3)C3CC4CC(C3)CC2C4)cc1 [OZ418]
[4]
  Expression level of CDKs, pRb and E2F1: reduced
MCMV; OZ418 once daily vs AS orally twice daily, FIG. 5 D-F
  MCMV inhibition compared to AS: more effective in MCMV inhibition
MCMV; salivary gland, liver and spleen, day 14 after infection, OZ418 1, 3 or 10 mg/kg orally once daily
  MCMV replication in organs: effectively inhibits mouse CMV replication; also recorded: dose response was observed
[1]
  Combination effect with GCV against HCMV: synergistic activity with GCV
[7]; high-density HFFs, FIG. 8A
  HCMV inhibition in high-density HFFs: effectively inhibited HCMV
[7]; low density and high density human fibroblast cells
  Cell-density dependence of anti-HCMV activity: cell-density dependent
[7]; low-density HFFs, FIG. 8A
  Activity against HCMV in low-density HFFs: significantly reduced
HCMV entry
  Inhibition of HCMV entry: did not inhibit HCMV entry
pp28-luciferase HCMV
  Timing of anti-HCMV activity: early-late inhibitor of HCMV
GCV-resistant CMV strain
  Inhibition of GCV-resistant strain: inhibited
non-infected HFFs [8]
  Cell cycle progression: did not influence cell cycle progression
[6]
  Selectivity index (SI): 13.06 ± 0.48
  EC50: 9.8 ± 0.25 µM
HCMV TB40 strain
  EC50: 8.53 ± 0.09 µM
MTT cell viability assay
  CC50 at 3 days: 128 ± 8 µM
HCMV-infected HFFs
  Cell cycle progression: delayed cell cycle progression
[9]
  Expression of CDKs, pRB and E2F1: unchanged; also recorded: did not decrease the expression of pRb or any of the tested CDKs

## c1cc([C@H]2CC[C@]3(CC2)OO[C@]2(O3)C3CC4CC(C3)CC2C4)ccc1OCCN1CCOCC1 [OZ439, artefenomel]
[6]
  EC50: 13.2 ± 1.27 µM

## OC1CCN(CCOc2ccc([C@H]3CC[C@]4(CC3)OO[C@]3(O4)C4CC5CC(C4)CC3C5)cc2)CC1 [OZ513b]
[6]
  Selectivity index (SI): 3.14 ± 0.20
  EC50: 15.7 ± 0.87 µM
MTT cell viability assay
  CC50 at 3 days: 49.4 ± 3.67 µM

## O=C(O)C1CCN(CCOc2ccc([C@H]3CC[C@]4(CC3)OO[C@]3(O4)C4CC5CC(C4)CC3C5)cc2)CC1 [OZ721]
[6]
  Selectivity index (SI): 7.89 ± 0.35
  EC50: 5.75 ± 0.74 µM
MTT cell viability assay
  CC50 at 3 days: 45.5 ± 6.82 µM

## O=C(O)P(=O)(O)O [foscarnet]
[5]
  Luciferase expression from UL99 (pp28) late promoter: almost completely inhibited
